According to publication PMC6162201, “Towards a comprehensive understanding of the structural dynamics of a bacterial diterpene synthase during catalysis” (Nature Communications, 2018):

Biological target: T1, CotB2 (CotB2^wt) (Streptomyces melanosporofaciens, UniProt C9K1X5)
T1 construct: C-terminal His6 tag, pET-24a, expressed in E. coli Rosetta2 (DE3)
T1 sequence (C9K1X5 1-307): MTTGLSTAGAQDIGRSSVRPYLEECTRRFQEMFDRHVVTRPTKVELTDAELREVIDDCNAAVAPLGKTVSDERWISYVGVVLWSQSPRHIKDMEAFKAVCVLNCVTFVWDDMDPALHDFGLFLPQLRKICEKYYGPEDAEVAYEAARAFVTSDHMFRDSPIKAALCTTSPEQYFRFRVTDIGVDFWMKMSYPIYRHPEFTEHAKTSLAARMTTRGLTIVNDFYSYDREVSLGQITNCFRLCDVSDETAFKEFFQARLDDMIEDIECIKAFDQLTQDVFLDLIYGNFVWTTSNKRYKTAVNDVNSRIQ
Type: binding
Conditions: Mg2+ (three ions), pH 8.5; active site, diphosphate mimic, closed state

With `NCCCC(O)(P(=O)(O)O)P(=O)(O)O` [AHD, (4-amino-1-hydroxy-1-phosphonobutyl)phosphonate] the “X-ray crystal structure, co-crystallisation” value was “we crystallised CotB2 with (4-amino-1-hydroxy-1-phosphonobutyl)phosphonate (alendronate (AHD)”.
